This passage reports EC50 results from patent US11498903B2 (BRISTOL-MYERS SQUIBB COMPANY, priority 2017, dated 2022).

The experiment has as its target T1, human APJ receptor (Homo sapiens, UniProt P35414).
T1 construct: expressed in transfected cells
T1 sequence (P35414 1-380): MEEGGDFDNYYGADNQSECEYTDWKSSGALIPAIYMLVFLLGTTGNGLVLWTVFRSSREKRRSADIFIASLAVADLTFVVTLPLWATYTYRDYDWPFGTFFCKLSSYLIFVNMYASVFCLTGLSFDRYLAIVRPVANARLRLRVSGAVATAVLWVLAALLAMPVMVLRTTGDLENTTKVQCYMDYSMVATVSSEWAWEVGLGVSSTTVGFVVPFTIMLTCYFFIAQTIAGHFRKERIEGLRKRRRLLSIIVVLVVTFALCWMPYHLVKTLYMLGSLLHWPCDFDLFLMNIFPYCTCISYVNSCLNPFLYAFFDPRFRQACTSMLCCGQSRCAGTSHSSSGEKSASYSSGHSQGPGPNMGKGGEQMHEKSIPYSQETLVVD
The experiment can be described thus: Intracellular cAMP accumulation assay (APJ hcAMP, HTRF). It counts as cell-based. The conditions noted are these: HEK293 cells stably expressing human APJ receptor. The method, then: Intracellular cAMP Accumulation Assay
HEK293 cells stably expressing human APJ receptor were used to assess the activity of compounds. Cultured cells were detached and resuspended in the cAMP Homogeneous Time-Resolved Fluorescence (HTRF) assay buffer (Cisbio cat; #62AM4PEJ). The assay was performed in 384-well assay plates (Perkin-Elmer; cat #6008289) according to assay protocol provided by the manufacturer. Serial dilutions of a compound together with assay buffer containing […] IBMX and 2 μM forskolin were added to each well containing 5,000 cells and incubated for 30 minutes at room temperature. Subsequently, cAMP D2 reagent was added in the lysis buffer followed by the EuK antibody (Cisbio; cat #62AM4PEJ) and incubated for 60 min. The fluorescence emission ratio was measured using fluorometer. The intracellular cAMP concentrations (compound-stimulated inhibition of forskolin-mediated cAMP production) were calculated by extrapolation from a standard curve using known cAMP concentrations. The EC50 values were obtained by fitting the data to a sigmoidal concentration-response curve with variable slope. The maximal achievable inhibition of forskolin-induced cAMP levels (Ymax) for each compound was expressed as relative percentage of inhibition attained using pyroglutamated apelin-13 ((Pyrl)apelin-13) peptide, which was set to 100%.
The exemplified Examples disclosed below were tested in the APJ in vitro assays described above and were found having human APJ cyclic AMP (hcAMP) activity. Table 1 lists hcAMP EC50 values measured for the following examples. Ranges are as followε: A=0.0-10 nM; B=10.01-100 nM; C=101-500 nM.

Where [1] appears, read: Table 1, inhibition of forskolin-mediated cAMP production, read-out: APJ hcAMP EC50.
The mark [2] stands for this setting: Table 3, read-out: APJ cAMP Human EC50.

Like-named read-outs stand apart in the source and are kept apart here.

Consider `CCC[C@@H](NC(=O)c1ccc(-c2c(Cl)cccc2-c2ncc(-c3ccc(OC)cc3)[nH]2)c(C(=O)O)c1)c1ccccc1` (atropisomer, axis not shown) [Example 105, (S)-2′-chloro-6′-[5-(4-methoxyphenyl)-1H-imidazol-2-yl]-4-{[(1R)-1-phenylbutyl]carbamoyl}-[1,1′-biphenyl]-2-carboxylic acid], for which the EC50 (as a rule, the concentration that produces a half-maximal response) was below 10 nM under setting [1] and below 10 nM under setting [2].

In the case of `CCC[C@@H](NC(=O)c1ccc(-c2c(Cl)cccc2-c2nc(C)c(-c3ccccc3)[nH]2)c(C(=O)O)c1)c1ccccc1` (atropisomer, axis not shown) [Example 106, (S)-2′-chloro-6′-(4-methyl-5-phenyl-1H-imidazol-2-yl)-4-{[(1R)-1-phenylbutyl]carbamoyl}-[1,1′-biphenyl]-2-carboxylic acid], the EC50 under setting [2] was 10 to 100 nM.

`CCC[C@@H](NC(=O)c1ccc(-c2c(Cl)cccc2-c2ncc(-c3ccncc3)[nH]2)c(C(=O)O)c1)c1ccccc1` (atropisomer, axis not shown) [Example 107, (S)-2′-chloro-4-{[(1R)-1-phenylbutyl]carbamoyl}-6′-[5-(pyridin-4-yl)-1H-imidazol-2-yl]-[1,1′-biphenyl]-2-carboxylic acid]: under setting [2], the EC50 lay in the range of 10 to 100 nM.

In the case of `CCC[C@@H](NC(=O)c1ccc(-c2c(Cl)cccc2-c2nc3cc(Cl)c(F)cc3[nH]2)c(C(=O)O)c1)c1ccccc1` (atropisomer, axis not shown) [Example 108, (S)-2′-chloro-6′-(5-chloro-6-fluoro-1H-1,3-benzodiazol-2-yl)-4-{[(1R)-1-phenylbutyl]carbamoyl}-[1,1′-biphenyl]-2-carboxylic acid], the EC50 under setting [2] is below 10 nM.

As to `CCC[C@@H](NC(=O)c1ccc(-c2c(Cl)cccc2-c2nc3cc(O)ccc3[nH]2)c(C(=O)OC)c1)c1ccccc1` (atropisomer, axis not shown) [Example 128, (S)-methyl 2′-chloro-6′-(5-hydroxy-1H-1,3-benzodiazol-2-yl)-4-{[(1R)-1-phenylbutyl]carbamoyl}-[1,1′-biphenyl]-2-carboxylate], the EC50 under setting [2] lay in the range of 10 to 100 nM.

Consider `CCC[C@@H](NC(=O)c1ccc(-c2c(Cl)cccc2-c2nc3cc(OC)ccc3[nH]2)c(C(=O)O)c1)c1ccccc1` (atropisomer, axis not shown) [Example 132, (S)-2′-chloro-6′-(5-methoxy-1H-1,3-benzodiazol-2-yl)-4-{[(1R)-1-phenylbutyl]carbamoyl}-[1,1′-biphenyl]-2-carboxylic acid], for which the EC50 was below 10 nM under setting [1] and below 10 nM under setting [2].

Regarding `CCC[C@@H](NC(=O)c1ccc(-c2c(Cl)cccc2-c2nc3cnccc3[nH]2)c(C(=O)O)c1)c1ccccc1` (atropisomer, axis not shown) [Example 133, (S)-2′-chloro-6′-{1H-imidazo[4,5-c]pyridin-2-yl}-4-{[(1R)-1-phenylbutyl]carbamoyl}-[1,1′-biphenyl]-2-carboxylic acid], the concentration for a half-maximal effect (EC50) under setting [2] is below 10 nM.

`CCC[C@@H](NC(=O)c1ccc(-c2c(Cl)cccc2-c2nc3cc(OC(C)=O)ccc3[nH]2)c(C(=O)O)c1)c1ccccc1` (atropisomer, axis not shown) [Example 134, (S)-2′-[5-(acetyloxy)-1H-1,3-benzodiazol-2-yl]-6′-chloro-4-{[(1R)-1-phenylbutyl]carbamoyl}-[1,1′-biphenyl]-2-carboxylic acid]: the EC50 was below 10 nM under setting [1] and below 10 nM under setting [2].

Turning to `CCC[C@@H](NC(=O)c1ccc(-c2c(Cl)cccc2-c2nc3cc(O)ccc3[nH]2)c(C(=O)O)c1)c1ccccc1` (atropisomer, axis not shown) [Example 135, (S)-2′-chloro-6′-(5-hydroxy-1H-1,3-benzodiazol-2-yl)-4-{[(1R)-1-phenylbutyl]carbamoyl}-[1,1′-biphenyl]-2-carboxylic acid], the EC50 under setting [2] was 10 to 100 nM.

Turning to `CCC[C@@H](NC(=O)c1ccc(-c2c(Cl)cccc2-c2nc3cc(OC(C)=O)ccc3[nH]2)c(C(=O)O)c1)c1ccccc1` (atropisomer, axis not shown) [Example 136, (S)-2′-[5-(acetyloxy)-1H-1,3-benzodiazol-2-yl]-6′-chloro-4-{[(1R)-1-phenylbutyl]carbamoyl}-[1,1′-biphenyl]-2-carboxylic acid], the EC50 under setting [2] was 101 to 500 nM.

As for `CCC[C@@H](NC(=O)c1ccc(-c2c(Cl)cccc2-c2nc3ccccc3[nH]2)c(C(=O)O)c1)c1ccccc1` (atropisomer, axis not shown) [Example 141, (R)-2′-(1H-1,3-benzodiazol-2-yl)-6′-chloro-4-{[(1R)-1-phenylbutyl]carbamoyl}-[1,1′-biphenyl]-2-carboxylic acid], the EC50 under setting [2] was in the range of 10 to 100 nM.

For the compound `COC[C@@H](NC(=O)c1ccc(-c2c(Cl)cccc2-c2nc3ccccc3[nH]2)c(C(=O)O)c1)c1ccccc1` (atropisomer, axis not shown) [Example 150, (S)-2′-(1H-1,3-benzodiazol-2-yl)-6′-chloro-4-{[(1S)-2-methoxy-1-phenylethyl]carbamoyl}-[1,1′-biphenyl]-2-carboxylic acid], the half-maximal effective concentration (EC50) runs as follows: under setting [1], below 10 nM; under setting [2], below 10 nM.

In the case of `CC(C)(O)C[C@@H](NC(=O)c1ccc(-c2c(Cl)cccc2-c2nc3ccccc3[nH]2)c(C(=O)O)c1)c1ccccc1` (atropisomer, axis not shown) [Example 151, (S)-2′-(1H-1,3-benzodiazol-2-yl)-6′-chloro-4-{[(1R)-3-hydroxy-3-methyl-1-phenylbutyl]carbamoyl}-[1,1′-biphenyl]-2-carboxylic acid], the half-maximal effective concentration (EC50) was below 10 nM under setting [1] and below 10 nM under setting [2].

On to `CCC[C@H](NC(=O)c1ccc(-c2c(Cl)cccc2-c2nc3ccccc3[nH]2)c(C(=O)O)c1)c1ccccc1` (atropisomer, axis not shown) [Example 152, (S)-2′-(1H-1,3-benzodiazol-2-yl)-6′-chloro-4-{[(1S)-1-phenylbutyl]carbamoyl}-[1,1′-biphenyl]-2-carboxylic acid], for which the EC50 under setting [2] fell in the range of 10 to 100 nM.

As for `COC[C@@H](NC(=O)c1ccc(-c2c(Cl)cccc2-c2nc3cc(OC)c(F)cc3[nH]2)c(C(=O)O)c1)c1ccccc1` (atropisomer, axis not shown) [Example 154, (S)-2′-chloro-6′-(6-fluoro-5-methoxy-1H-1,3-benzodiazol-2-yl)-4-{[(1S)-2-methoxy-1-phenylethyl]carbamoyl}-[1,1′-biphenyl]-2-carboxylic acid], the EC50 under setting [2] was below 10 nM.

Consider `CCC[C@@H](NC(=O)c1ccc(-c2c(Cl)cccc2-c2nc3cc(O)ccc3[nH]2)c(C(=O)O)c1)c1ccccc1` (atropisomer, axis not shown) [Example 155, (S)-2′-chloro-6′-(5-hydroxy-1H-1,3-benzodiazol-2-yl)-4-{[(1R)-1-phenylbutyl]carbamoyl}-[1,1′-biphenyl]-2-carboxylic acid], for which the concentration for a half-maximal effect (EC50) under setting [2] was below 10 nM.

`O=C(N[C@H](CN1CCOCC1)c1ccccc1)c1ccc(-c2c(Cl)cccc2-c2nc3ccccc3[nH]2)c(C(=O)O)c1` (atropisomer, axis not shown) [Example 156, (S)-2′-(1H-1,3-benzodiazol-2-yl)-6′-chloro-4-{[(1S)-2-(morpholin-4-yl)-1-phenylethyl]carbamoyl}-[1,1′-biphenyl]-2-carboxylic acid]: the half-maximal effective concentration (EC50) runs as follows: under setting [1], below 10 nM; under setting [2], below 10 nM.
